In ChEMBL document CHEMBL1212904, “Discovery of pyrrole-indoline-2-ones as Aurora kinase inhibitors with a different inhibition profile” (J Med Chem, 2010) one finds inhibition and IC50 data, which are given here for 33 molecules.

SMILES strings stand for the structures.

For assay [1], the target named is T1, Aurora kinase B (Homo sapiens, UniProt Q96GD4). The assay is described as follows: Inhibition of recombinant aurora B at 1 uM.
The next assay addresses T2, Aurora kinase A (Homo sapiens, UniProt O14965).
T2 sequence (O14965 whole entry): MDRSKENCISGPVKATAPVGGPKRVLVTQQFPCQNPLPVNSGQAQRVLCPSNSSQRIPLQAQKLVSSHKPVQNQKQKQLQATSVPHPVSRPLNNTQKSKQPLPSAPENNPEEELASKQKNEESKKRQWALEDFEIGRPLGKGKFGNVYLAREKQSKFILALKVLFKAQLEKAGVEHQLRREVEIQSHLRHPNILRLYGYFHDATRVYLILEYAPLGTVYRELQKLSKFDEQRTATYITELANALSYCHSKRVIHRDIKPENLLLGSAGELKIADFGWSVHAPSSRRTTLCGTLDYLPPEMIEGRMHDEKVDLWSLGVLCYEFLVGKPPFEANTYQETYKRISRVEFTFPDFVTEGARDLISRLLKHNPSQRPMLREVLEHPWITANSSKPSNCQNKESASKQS
The assay is described as follows: Inhibition of recombinant aurora A.

For assay [2], the target named is T1, Aurora kinase B. The assay is described as follows: Inhibition of recombinant aurora B.
The subject of assay [3] is HCT-116. The assay is described as follows: Antiproliferative activity against human HCT116 cells after 72 hrs by cell titer 96 assay. Type of assay: functional, cell-based. To be noted: HCT-116, 72 h.
Another assay deals with HT-29. The assay is described as follows: Antiproliferative activity against human HT-29 cells after 72 hrs by cell titer 96 assay. Type of assay: functional, cell-based. The conditions noted are these: HT-29, 72 h.
The test system of a further assay is HeLa. The assay is described as follows: Antiproliferative activity against human HeLa cells after 72 hrs by cell titer 96 assay. Format: functional, cell-based.
In assay [4] the target is T3, Aurora kinase A (Homo sapiens) (UniProt O14965).
T3 sequence (whole entry): T2 sequence (O14965 whole entry)
The assay is described as follows: Inhibition of recombinant aurora A at 1 uM.

For assay [5], the system named is HCT-116. The assay is described as follows: Antiproliferative activity against human HCT116 cells after 72 hrs by [3H]thymidine incorporation assay. Type of assay: functional, cell-based. (In general: Uptake of a labelled nucleoside into DNA is a usual measure of proliferation.)

T1 sequence (Q96GD4 whole entry): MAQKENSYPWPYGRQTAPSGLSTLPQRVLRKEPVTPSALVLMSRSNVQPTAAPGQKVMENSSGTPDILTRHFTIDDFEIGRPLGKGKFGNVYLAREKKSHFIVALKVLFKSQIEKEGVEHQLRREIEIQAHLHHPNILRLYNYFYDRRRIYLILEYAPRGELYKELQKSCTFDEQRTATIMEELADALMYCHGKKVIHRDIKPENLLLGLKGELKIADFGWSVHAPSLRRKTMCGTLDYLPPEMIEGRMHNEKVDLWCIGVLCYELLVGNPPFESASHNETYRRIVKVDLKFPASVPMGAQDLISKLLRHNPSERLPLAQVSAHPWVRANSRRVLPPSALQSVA

Take `O=C(O)CCc1c(/C=C2\C(=O)Nc3ccc(S(=O)(=O)Cc4ccc(F)cc4)cc32)[nH]c2c1C(=O)CCC2`: the inhibition (usually the share of the control response that was lost under treatment) at Aurora kinase B [1] turned out to be 15.5%.

On to `COc1ccc(-c2ccc3c(c2)/C(=C/c2[nH]c4c(c2CCC(=O)O)C(=O)CCC4)C(=O)N3)cc1OC`, for which the inhibition at Aurora kinase B [1] turned out to be 5.1%.

Regarding `CC1(C)CC(=O)c2c([nH]c(/C=C3\C(=O)Nc4ccc(F)cc43)c2CCC(=O)O)C1`, the IC50 (as a rule, the concentration that inhibits the measured activity by half) at Aurora kinase A was 456 nM. Further, on Aurora kinase B [1], the inhibition was found to be 17.3%.

In the case of `NS(=O)(=O)c1ccc2c(c1)/C(=C/c1[nH]c3c(c1CCC(=O)O)C(=O)CCC3)C(=O)N2`, on Aurora kinase B [1], the inhibition came out at 34.1%.

As to `CN(C)S(=O)(=O)c1ccc2c(c1)/C(=C/c1[nH]c3c(c1CCC(=O)O)C(=O)CCC3)C(=O)N2`, the IC50 at Aurora kinase A stood at 21 nM.

For `O=C1Nc2ccc(NS(=O)(=O)c3ccccc3)cc2/C1=C/c1[nH]c2c(c1CCCN1CCCC1)C(=O)CCC2`, the IC50 was 2170 nM at Aurora kinase A; 310 nM on Aurora kinase B [2]; above 10000 nM in the assay on HCT-116 [3]; 3320 nM with HT-29; above 10000 nM with HeLa.

With `CCN(CC)CCCc1c(/C=C2\C(=O)Nc3ccc(S(=O)(=O)N4CCc5ccccc54)cc32)[nH]c2c1C(=O)CCC2`, the IC50 was 2340 nM at Aurora kinase A; 616 nM at Aurora kinase B [2]; 2660 nM with HCT-116 [3]; 2130 nM with HT-29; 3270 nM with HeLa.

Regarding `CC(=O)c1c(C)[nH]c(/C=C2\C(=O)Nc3ccc(F)cc32)c1CCC(=O)O`, the IC50 on Aurora kinase A amounted to 362 nM. For the same molecule, at Aurora kinase B [1], the inhibition amounted to 17.5%.

For the molecule `O=C(O)CCc1c(/C=C2\C(=O)Nc3ccc(NS(=O)(=O)c4ccc5ccccc5c4)cc32)[nH]c2c1C(=O)CCC2`, the inhibition in assay [4] turned out to be 40.6%; at Aurora kinase B [1], 21%.

Take `O=C1Nc2ccc(NS(=O)(=O)c3ccccc3)cc2/C1=C/c1[nH]c2c(c1CCC(=O)N1CCCC1)C(=O)CCC2`: the IC50 on Aurora kinase A was 218 nM; on Aurora kinase B [2], 719 nM; with HCT-116 [3], above 10000 nM; with HT-29 it was above 10000 nM; in the assay on HeLa, above 10000 nM.

Turning to `O=C(O)CCc1c(/C=C2\C(=O)Nc3ccc([N+](=O)[O-])cc32)[nH]c2c1C(=O)CCC2`, the inhibition at Aurora kinase B [1] worked out at 3.4%.

For `CCN(CC)CCCc1c(/C=C2\C(=O)Nc3ccc(NS(=O)(=O)c4ccccc4)cc32)[nH]c2c1C(=O)CCC2`, the IC50 is 2450 nM at Aurora kinase A; 356 nM at Aurora kinase B [2]; above 10000 nM in the assay with HCT-116 [3]; above 10000 nM in the assay with HT-29; 8610 nM in the assay with HeLa.

As to `CCS(=O)(=O)Nc1ccc2c(c1)/C(=C/c1[nH]c3c(c1CCC(=O)O)C(=O)CCC3)C(=O)N2`, the IC50 on Aurora kinase A came to 34 nM. Besides, the inhibition at Aurora kinase B [1] was determined as 7.3%.

`O=C(O)CCc1c(/C=C2\C(=O)Nc3ccc(S(=O)(=O)N4CCCC4)cc32)[nH]c2c1C(=O)CCC2`: on Aurora kinase A, the IC50 is 7 nM.

For the molecule `CN(C)CCCc1c(/C=C2\C(=O)Nc3ccc(S(=O)(=O)N4CCc5ccccc54)cc32)[nH]c2c1C(=O)CCC2`, the IC50 was determined as 2270 nM on Aurora kinase A; 312 nM on Aurora kinase B [2]; 900 nM in the assay on HCT-116 [3]; 750 nM in the assay with HT-29; 1620 nM in the assay with HeLa.

With `O=C(O)CCc1c(/C=C2\C(=O)Nc3ccc(S(=O)(=O)N4CCc5ccccc54)cc32)[nH]c2c1C(=O)CCC2`, on Aurora kinase A, the IC50 stood at 8 nM.

As to `CC(=O)Nc1ccc2c(c1)/C(=C/c1[nH]c3c(c1CCC(=O)O)C(=O)CCC3)C(=O)N2`, the inhibition at Aurora kinase B [1] was determined as 12.8%.

In the case of `O=C(O)CCc1c(/C=C2\C(=O)Nc3ccc(Br)cc32)[nH]c2c1C(=O)CCC2`, on Aurora kinase B [1], the inhibition was 6.8%.

With `O=C(O)CCc1c(/C=C2\C(=O)Nc3ccc(S(=O)(=O)Cc4ccccc4)cc32)[nH]c2c1C(=O)CCC2`, on Aurora kinase B [1], the inhibition turned out to be 11.2%.

Consider `O=C1Nc2ccc(S(=O)(=O)N3CCc4ccccc43)cc2/C1=C/c1[nH]c2c(c1CCC(=O)N1CCOCC1)C(=O)CCC2`, for which the IC50 on Aurora kinase A is 563 nM; at Aurora kinase B [2] it was 3150 nM; in the assay on HCT-116 [3] it was above 10000 nM; with HT-29 it was above 10000 nM; in the assay on HeLa, above 10000 nM.

For the molecule `C=CCS(=O)(=O)c1ccc2c(c1)/C(=C/c1[nH]c3c(c1CCC(=O)O)C(=O)CCC3)C(=O)N2`, the IC50 at Aurora kinase A is 39 nM. The inhibition at Aurora kinase B [1] stood at 32.5%.

For `O=C(O)CCc1c(/C=C2\C(=O)Nc3ccc(NC(=O)c4ccccc4)cc32)[nH]c2c1C(=O)CCC2`, the IC50 at Aurora kinase A amounted to 720 nM. Further, the inhibition on Aurora kinase B [1] amounted to 14.2%.

For `COc1cc(-c2ccc3c(c2)/C(=C/c2[nH]c4c(c2CCC(=O)O)C(=O)CCC4)C(=O)N3)ccc1O`, on Aurora kinase B [1], the inhibition amounted to 12.4%.

As for `O=C(O)CCc1c(/C=C2\C(=O)Nc3ccc(F)cc32)[nH]c2c1C(=O)CCC2`, the inhibition on Aurora kinase B [1] turned out to be 11.6%.

For the molecule `CNS(=O)(=O)c1ccc2c(c1)/C(=C/c1[nH]c3c(c1CCC(=O)O)C(=O)CCC3)C(=O)N2`, the inhibition on Aurora kinase B [1] amounted to 2.6%.

For the molecule `O=C(O)CCc1c(/C=C2\C(=O)Nc3ccccc32)[nH]c2c1C(=O)CCC2`, the inhibition at Aurora kinase B [1] is 13%.

Turning to `CCS(=O)(=O)c1ccc2c(c1)/C(=C/c1[nH]c3c(c1CCC(=O)O)C(=O)CCC3)C(=O)N2`, the IC50 on Aurora kinase A stood at 57 nM. Moreover, the inhibition on Aurora kinase B [1] worked out at 7%.

Take `O=C(O)CCc1c(/C=C2\C(=O)Nc3ccc(F)cc32)[nH]c2c1C(=O)CCCC2`: the inhibition in assay [4] turned out to be 45.5%; at Aurora kinase B [1] it was 2%.

As for `O=C1Nc2ccc(NS(=O)(=O)c3ccccc3)cc2/C1=C/c1[nH]c2c(c1CCC(=O)N1CCOCC1)C(=O)CCC2`, the IC50 on Aurora kinase A is 281 nM; at Aurora kinase B [2] it was 906 nM; in the assay on HCT-116 [3], above 10000 nM; in the assay on HT-29, above 10000 nM; with HeLa it was above 10000 nM.

Take `CCOC(=O)CCc1c(/C=C2\C(=O)Nc3ccc(F)cc32)[nH]c2c1C(=O)CCC2`: on Aurora kinase B [1], the inhibition came out at 3%.

On to `O=C(O)CCc1c(/C=C2\C(=O)Nc3ccc(NS(=O)(=O)c4ccccc4)cc32)[nH]c2c1C(=O)CCC2`, for which the IC50 is 12 nM at Aurora kinase A, above 10000 nM in the assay with HCT-116 [3], above 10000 nM in the assay with HCT-116 [5] and above 10000 nM in the assay with HT-29.

Regarding `CCOC(=O)CCc1c(/C=C2\C(=O)Nc3ccccc32)[nH]c2c1C(=O)CCC2`, the inhibition at Aurora kinase B [1] stood at 2.3%.

`CNC(=O)CCc1c(/C=C2\C(=O)Nc3ccc(NS(=O)(=O)c4ccccc4)cc32)[nH]c2c1C(=O)CCC2`: the IC50 at Aurora kinase A is 117 nM; at Aurora kinase B [2], 320 nM; in the assay on HCT-116 [3], above 10000 nM; in the assay with HT-29, above 10000 nM; in the assay on HeLa it was above 10000 nM.
